Laboratory results published in patent US8283378B2, “Phenylurea inhibitors of the SOAT-1 enzyme and pharmaceutical/cosmetic compositions comprised thereof” (Galderma Research & Development, priority 2007, dated 2012).

Molecular target: T1, enzyme ACAT-1 (Homo sapiens, UniProt P35610)
T1 construct: endogenous in cells; host or cells: HepG2
T1 sequence (P35610 1-550): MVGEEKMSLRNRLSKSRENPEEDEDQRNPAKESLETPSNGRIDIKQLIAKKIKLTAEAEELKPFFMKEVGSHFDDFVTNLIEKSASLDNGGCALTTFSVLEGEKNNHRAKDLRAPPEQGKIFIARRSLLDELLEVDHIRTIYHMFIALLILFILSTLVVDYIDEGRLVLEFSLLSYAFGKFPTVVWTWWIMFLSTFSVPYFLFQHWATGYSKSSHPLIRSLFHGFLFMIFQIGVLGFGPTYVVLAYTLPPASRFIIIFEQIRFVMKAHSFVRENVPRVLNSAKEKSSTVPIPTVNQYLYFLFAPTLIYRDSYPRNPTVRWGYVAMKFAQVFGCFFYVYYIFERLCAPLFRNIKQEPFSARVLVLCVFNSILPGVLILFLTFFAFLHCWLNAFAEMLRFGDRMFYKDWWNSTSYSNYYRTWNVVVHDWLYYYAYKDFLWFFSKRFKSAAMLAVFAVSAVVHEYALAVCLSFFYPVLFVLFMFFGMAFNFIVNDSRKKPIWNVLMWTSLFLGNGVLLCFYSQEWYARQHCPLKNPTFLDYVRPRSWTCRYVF
Assay: primary HepG2 enzyme test: cell-based NBD-cholesterol fluorescence assay of ACAT-1 (SOAT-1) inhibition
Details: HepG2 cells, NBD-cholesterol 1 μg/ml, incubation 6 h at 37° C., fluorescence excitation 490 nm / emission 540 nm
Description: The compounds (I) according to the invention, as well as their pharmaceutically acceptable salts, solvates and/or hydrates, display SOAT-1 enzyme inhibiting properties. This inhibitory effect on the SOAT-1 enzyme is measured by a primary HepG2 enzyme test, as described below.
The compounds of formula (I) according to the invention were tested to evaluate their inhibitory activity with respect to the enzyme ACAT-1 based on the following work: “Identification of ACAT1- and ACAT2-specific inhibitors using a novel, cell based fluorescence assay: individual ACAT uniqueness”, J. lipid. Res (2004) vol 45, pages 378-386. The principle of this test is based on the use of NBD-cholesterol, an analogue of cholesterol with fluorescence depending on its environment. When it is in a polar environment it is weakly fluorescent, whereas in a non-polar environment it is strongly fluorescent. Free NBD-cholesterol localizes in the cell membranes and is weakly fluorescent in this polar environment. […]
The following method is used: HepG2 cells are incubated in the presence of NBD-cholesterol (1 μg/ml) and of the test compound of formula (I) in black, transparent-bottom 96-well plates at a rate of 30000 cells per well. […] After adding 50 μl of lysis buffer (NaPO4 10 mM, Igepal 1%) the plates are agitated for 5 min and, read in fluorescence (excitation 490 nm, emission 540 nm) on a FUSION instrument (Perkin Elmer).

CC(C)c1cccc(C(C)C)c1NC(=O)NCC1(SCc2ccccc2)CCCCC1 [Compound (I.4), 1-(1-Benzylsulfanyl-cyclohexylmethyl)-3-(2,6-diisopropyl-phenyl)-urea]
IC50: 71 nM
